Values quoted from earlier work in patent US11964949B2, “Substituted phenyloxazolidinones for antimicrobial therapy” (priority 2015, dated 2024).

Test system: Mycobacterium tuberculosis, including multidrug-resistant (MDR) and extensively drug resistant (XDR) strains
Settings: M. tuberculosis incl. MDR and XDR strains; cited from earlier work

CC(=O)NC[C@H]1CN(c2ccc(N3CCOCC3)c(F)c2)C(=O)O1 [Linezolid]
minimum inhibitory concentration (MIC): less than 1 ag/ml
